Tests used:
Assay type in all cases: cell-based
pathogen of the specimen = assay: Traditional culture-based antimicrobial susceptibility test (comparison of Table 7); conditions: E. coli isolate 1189
Protocol: Table 7 illustrates the results of an example antimicrobial agent susceptibility test of the current application versus a traditional culture-based antimicrobial agent susceptibility test at multiple incubation timepoints, in accordance with one or more embodiments of the disclosure. These specimens were tested with direct PCR (e.g., no extraction DNA purification step prior to PCR). […] Result Reporting to Healthcare Providers. The results from the antimicrobial exposure are reported to the ordering healthcare provider. This information can be utilized by the healthcare provider when selecting an antimicrobial regimen for their individual patient based on these individual specimen results and patient specific factors. […] The current standard of care for antimicrobial susceptibility testing involves the growth, isolation, and exposure of pathogens to antimicrobials. This traditional culture and sensitivity process can take multiple days to obtain results, limiting the ability of healthcare providers to receive timely results to make actionable changes in patient care or management. Healthcare providers desire a method to obtain antimicrobial susceptibility results with quicker turn-around-time. This application discloses a molecular-based phenotypic antimicrobial susceptibility method which involves pathogen exposure to a panel of antimicrobial agents at their specified minimum inhibitory concentration breakpoints for sensitivity. This method allows for more timely antimicrobial susceptibility results.

Acinetobacter baumannii [1] = assay: Traditional culture-based antimicrobial susceptibility test
From the text: Table 2 illustrates the results of an example antimicrobial agent susceptibility test of the current application versus a traditional culture-based antimicrobial agent susceptibility test for […], in accordance with one or more embodiments of the disclosure. This specimen underwent extraction and/or DNA purification prior to PCR. As in Table 1, the results of the test of the current application are similar to the results from the traditional test.
Result Reporting to Healthcare Providers. The results from the antimicrobial exposure are reported to the ordering healthcare provider. This information can be utilized by the healthcare provider when selecting an antimicrobial regimen for their individual patient based on these individual specimen results and patient specific factors. […] The current standard of care for antimicrobial susceptibility testing involves the growth, isolation, and exposure of pathogens to antimicrobials. This traditional culture and sensitivity process can take multiple days to obtain results, limiting the ability of healthcare providers to receive timely results to make actionable changes in patient care or management. Healthcare providers desire a method to obtain antimicrobial susceptibility results with quicker turn-around-time. This application discloses a molecular-based phenotypic antimicrobial susceptibility method which involves pathogen exposure to a panel of antimicrobial agents at their specified minimum inhibitory concentration breakpoints for sensitivity. This method allows for more timely antimicrobial susceptibility results.

Acinetobacter baumannii [2] = assay: Molecular phenotypic antimicrobial susceptibility test (extraction/DNA purification prior to PCR)
Protocol: Detection of Molecular Phenotypic Antimicrobial Susceptibility. Disclosed herein are the methods for the detection of phenotypic antimicrobial susceptibility via molecular methods. The present invention describes how a specimen 100 with a known microbial load is incubated and then exposed to a panel of antimicrobial agents to determine sensitivity (prevention of growth) or resistance (allowance of growth) to the specific antimicrobial agents tested utilizing molecular methods. Sample Collection. Specimens 100 are collected from patients using sterile collection processes that are employed in routine clinical care. Specimens are transported to the testing facility in boric acid preservative. […] The specimens 100 are put through a pathogen identification process using PCR technology (e.g., using the first sample 104). The process for pathogen isolation includes steps of harvesting the pathogen (e.g., via centrifugation), isolating pathogen DNA via a DNA isolation and/or purification kit, and performing PCR on the pathogen DNA via PCR components (e.g., primers, enzymes, buffers) as would be known to the skilled artisan. Simultaneously, an additional aliquot of the same specimen (e.g., the second sample 108) is placed with liquid culture media and incubated for 4-6 hours. This aliquot is used for antimicrobial susceptibility testing if indicated based on the pathogen detection results. […] Specimens 100 with lower pathogen loads could also be utilized in the antibiotic susceptibility phase of testing with or without a longer incubation period. […] Antimicrobial solutions are prepared at known concentrations. The specific antimicrobials and their concentrations are selected based on the pathogen of interest and the described antimicrobial resistance breakpoints for that specimen pathogen and antimicrobial combination. These antimicrobials have been selected based on those commonly utilized by healthcare providers in routine clinical care for the specific type of suspected infection. The number and types of antimicrobials utilized can be customized based on the infection source, pathogen detected, patient-specific factors such as allergies or other health conditions (e.g., chronic kidney disease or concurrent medication use), or healthcare provider preferences such as antimicrobial availability or cost. The antimicrobial solutions are prepared in liquid culture media (such as Muller Hinton Broth) to achieve the desired antimicrobial concentration and are then stored at −80° C. until use. For a given specimen, each antimicrobial is tested at a single or multiple antimicrobial concentration(s) which is its established breakpoints for sensitivity. The antimicrobial solutions are prepared and plated out for each specific pathogen. This allows ease of use on the day of testing after defrosting the plate 112. Table 1, which illustrates the results of molecular phenotypic antimicrobial susceptibility testing when more than one organism is present in the source specimen, provides an example of an antimicrobial plate 112 prepared for this purpose. Of note, control wells containing only culture media are present on all plates 112. This allows for evaluation of pathogen load when no antimicrobial is present. Specimen Exposure to Antimicrobial Agents. The 1 mL aliquot of the specimen 100 previously mixed with culture media and incubated is obtained. Using optical density measurements as a guide, the specimen 100 is diluted to 0.5 McFarland. The specimen 100 is then placed into the previously prepared antimicrobial susceptibility testing plate 112. Each plate 112 is prepared for a single specimen 100 for a specified pathogen based on its detection. For example, if the specimen 100 has more than one pathogen detected that needs different antimicrobial concentrations for exposure due to different minimum inhibitory concentration breakpoints for one or more organisms, then more than one antimicrobial exposure plate 112 may be needed. […]

[3] = A. baumannii isolate 4, Ct at control (average) 18.061
[4] = A. baumannii isolate 4, at sensitive breakpoint
[5] = A. baumannii isolate 5, Ct at control (average) 18.191
[6] = A. baumannii isolate 5, at sensitive breakpoint
[7] = A. baumannii isolate 1, Ct at control (average) 18.811
[8] = A. baumannii isolate 1, at sensitive breakpoint
[9] = A. baumannii isolate 2, Ct at control (average) 18.763
[10] = A. baumannii isolate 2, at sensitive breakpoint
[11] = A. baumannii isolate 3, Ct at control (average) 18.799
[12] = A. baumannii isolate 3, at sensitive breakpoint

Compound | Traditional Culture Result (pathogen of the specimen) | Traditional Culture Result (Acinetobacter baumannii [1]; A. baumannii isolate 4) | Traditional Culture Result (Acinetobacter baumannii [1]; A. baumannii isolate 5) | Ct at Sensitive Breakpoint (Acinetobacter baumannii [2]; [3]) | Molecular Antimicrobial Susceptibility Result (Acinetobacter baumannii [2]; [4]) | Ct at Sensitive Breakpoint (Acinetobacter baumannii [2]; [5]) | Molecular Antimicrobial Susceptibility Result (Acinetobacter baumannii [2]; [6]) | Traditional Culture Result (Acinetobacter baumannii [1]; A. baumannii isolate 1) | Traditional Culture Result (Acinetobacter baumannii [1]; A. baumannii isolate 2) | Traditional Culture Result (Acinetobacter baumannii [1]; A. baumannii isolate 3) | Ct at Sensitive Breakpoint (Acinetobacter baumannii [2]; [7]) | Molecular Antimicrobial Susceptibility Result (Acinetobacter baumannii [2]; [8]) | Ct at Sensitive Breakpoint (Acinetobacter baumannii [2]; [9]) | Molecular Antimicrobial Susceptibility Result (Acinetobacter baumannii [2]; [10]) | Ct at Sensitive Breakpoint (Acinetobacter baumannii [2]; [11]) | Molecular Antimicrobial Susceptibility Result (Acinetobacter baumannii [2]; [12])
Cc1nnc(SCC2=C(C(=O)O)N3C(=O)[C@@H](NC(=O)Cn4cnnn4)[C@H]3SC2)s1 [Cefazolin] | Resistant |  |  |  |  |  |  |  |  |  |  |  |  |  |  | 
CC1(C)S[C@@H]2[C@H](NC(=O)[C@H](N)c3ccccc3)C(=O)N2[C@H]1C(=O)O [Ampicillin] | Resistant |  |  |  |  |  |  |  |  |  |  |  |  |  |  | 
Gentamicin | Sensitive | Sensitive | Sensitive | 19.380 | Sensitive (Antimicrobial wells with pathogen load detected below the control wells (typically >2 cycle thresholds later) may be reported as Sensitive) | 19.399 | Sensitive (Antimicrobial wells with pathogen load detected below the control wells (typically >2 cycle thresholds later) may be reported as Sensitive) |  |  |  |  |  |  |  |  | 
CO/N=C(\C(=O)N[C@@H]1C(=O)N2C(C(=O)[O-])=C(C[N+]3(C)CCCC3)CS[C@H]12)c1csc(N)n1 [Cefepime] | Sensitive | Resistant | Resistant | 18.955 | Resistant | 18.489 | Resistant | Resistant | Resistant | Sensitive | 19.944 | Resistant | 19.194 | Resistant | 19.873 | Sensitive (Antimicrobial wells with pathogen load detected below the control wells (typically >2 cycle thresholds later) may be reported as Sensitive)
CO/N=C(\C(=O)N[C@@H]1C(=O)N2C(C(=O)O)=C(CSc3nc(=O)c(=O)[nH]n3C)CS[C@H]12)c1csc(N)n1 [Ceftriaxone] | Resistant | Resistant | Resistant | 18.774 | Resistant | 18.571 | Resistant | Resistant | Resistant | Resistant | 16.497 | Resistant | 19.075 | Resistant | 19.667 | Resistant
C[C@@H](O)[C@H]1C(=O)N2C(C(=O)O)=C(S[C@@H]3CN[C@H](C(=O)N(C)C)C3)[C@H](C)[C@H]12 [Meropenem] | Sensitive | Resistant | Resistant | 17.553 | Resistant | 20.173 | Resistant | Resistant | Resistant | Resistant | 18.123 | Resistant | 19.761 | Resistant | 18.077 | Resistant
CO[C@@]1(NC(=O)Cc2cccs2)C(=O)N2C(C(=O)O)=C(COC(N)=O)CS[C@@H]21 [Cefoxitin] | Resistant |  |  |  |  |  |  |  |  |  |  |  |  |  |  | 
Piperacillin/Tazobactam | Sensitive | Resistant | Resistant | 16.207 | Resistant | 17.081 | Resistant | Resistant | Resistant | Resistant | 17.127 | Resistant | 19.691 | Resistant | 18.647 | Resistant
Ampicillin/Sulbactam |  | Sensitive | Sensitive | 19.447 | Sensitive (Antimicrobial wells with pathogen load detected below the control wells (typically >2 cycle thresholds later) may be reported as Sensitive) | 19.682 | Sensitive (Antimicrobial wells with pathogen load detected below the control wells (typically >2 cycle thresholds later) may be reported as Sensitive) |  |  |  |  |  |  |  |  | 
C[C@H]1COc2c(N3CCN(C)CC3)c(F)cc3c(=O)c(C(=O)O)cn1c23 [Levofloxacin] |  |  |  | 18.709 | Resistant | 19.052 | Resistant |  |  |  | 17.268 | Resistant | 19.405 | Resistant | 18.253 | Resistant

— patent publication US20250290117A1, “MOLECULAR PHENOTYPIC ANTIMICROBIAL SUSCEPTIBILITY TESTING” (priority 2024, published 2025)
